# In article PMC12090182, “Repurposing of the RIPK1-Selective Benzo[1,4]oxazepin-4-one Scaffold for the Development of a Type III LIMK1/2 Inhibitor” (ACS Chemical Biology, 2025):
# “And” between values parts separate entries of the source, which are not always exact repeats. Equal values may be shown once.
# Assays:
# Format in all cases: cell-based
# MRC-9 cells = assay: Multiplex high-content viability assessment; details: human fibroblast, 10 µM
# Protocol: (§1) To assess the influence on cell health, a high-content screening in living cells called the multiplex high-content assay, as described previously by Tjaden et al., was performed.[38] In brief, HEK293T (ATCC CRL-1573) and U2OS (ATCCHTB-96) were cultured in DMEM plus L-glutamine (high glucose) supplemented by 10% FBS (Gibco) and penicillin/streptomycin (Gibco). MRC-9 fibroblasts ([…]) were cultured in EMEM plus L-glutamine supplemented by 10% FBS (Gibco) and penicillin/streptomycin (Gibco). Cells were seeded at a density of 1250 cells per well in a 384-well plate in a culture medium (cell culture microplate, PS, f-bottom, μClear, 781091, Greiner), with a volume of 50 μL per well. All outer wells were filled with 100 μL of PBS buffer (Gibco). […] The cell shape and fluorescence were measured before treatment and 12, 24, and 48 h after compound treatment using the CQ1 high-content confocal microscope (Yokogawa, Musashino, Japan). […] The compounds were tested at 1 and 10 μM, respectively. Acquired images of the cells were processed using Yokogawa CellPathfinder software (v3.04.02.02). […] Results were normalized to cells exposed to 0.1% DMSO. All compounds were tested in biological duplicates, and SEM (standard error of mean) was calculated of biological duplicates.
# HEK293T cells = details: HEK293T, 10 µM
# Protocol: as §1
# U2OS cells = details: U2OS; 10 µM; 0 h after treatment
# Protocol: as §1
compound,measurement,setting,value
CN[C@@H]1C[C@H]2O[C@@](C)([C@@H]1OC)n1c3ccccc3c3c4c(c5c6ccccc6n2c5c31)C(=O)NC4 [staurosporine],Population Healthy Nuclei (%),MRC-9 cells; 0 h after treatment,63.64% and 62.50% and 53.61% and 54.10%
same,Population Fragmented Nuclei (%),MRC-9 cells; 12 h after treatment,57.03% and 59.76% and 57.04% and 49.59%
same,Population Healthy Nuclei (%),MRC-9 cells; 12 h after treatment,32.43% and 29.76% and 33.41% and 38.90%
same,Population apoptotic cell (%),MRC-9 cells; 12 h after treatment,48.72% and 46.51% and 42.50% and 50.00%
same,Population Fragmented Nuclei (%),MRC-9 cells; 24 h after treatment,56.12% and 54.77% and 50.00% and 53.32%
same,Population Healthy Nuclei (%),MRC-9 cells; 24 h after treatment,37.01% and 35.97% and 41.62% and 36.60%
same,Population Fragmented Nuclei (%),MRC-9 cells; 48 h after treatment,53.07% and 56.00% and 48.62% and 54.18%
same,Population Healthy Nuclei (%),MRC-9 cells; 48 h after treatment,39.48% and 36.86% and 44.48% and 39.35%
same,Population with membrane disruption (%),HEK293T cells; 0 h after treatment,0.00%
same,Population Healthy Nuclei (%),HEK293T cells; 12 h after treatment,64.72% and 69.22% and 71.09%
same,Population cell that influence microtubule strucutre (%),HEK293T cells; 12 h after treatment,37.22% and 35.67%
same,Population apoptotic cell (%),HEK293T cells; 48 h after treatment,60.00% and 75.00% and 76.47%
same,Population with increased mitochondrial mass (%),U2OS cells,2.11% and 3.70% and 5.56%
